What was measured:
Conditions in all cases: 72 h
Calu-3 [1] = assay: cell viability relative to DMSO; higher = less toxic
U2OS [2] = assay: as above
Caco-2 [3] = assay: as above
Vero E6 [4] = assay: as above
HepG2 [5] = assay: as above
Calu-3 [6] = assay: relative viability EC50 (midpoint between 100% and the lowest measured viability); higher = less toxic
U2OS [7] = assay: as above
Caco-2 [8] = assay: as above
Vero E6 [9] = assay: as above
HepG2 [10] = assay: as above
Calu-3 [11] = assay: drug sensitivity score (DSS) for viability; higher = more toxic; extreme values may be limits of the assay
U2OS [12] = assay: as above
Caco-2 [13] = assay: as above
Vero E6 [14] = assay: as above
HepG2 [15] = assay: as above

SMILES	cell viability (Calu-3 [1]; 1 nM) [%]	cell viability (Calu-3 [1]; 10 nM) [%]	cell viability (Calu-3 [1]; 100 nM) [%]	cell viability (Calu-3 [1]; 1000 nM) [%]	cell viability (Calu-3 [1]; 10000 nM) [%]	cell viability (U2OS [2]; 1 nM) [%]	cell viability (U2OS [2]; 10 nM) [%]	cell viability (U2OS [2]; 100 nM) [%]	cell viability (U2OS [2]; 1000 nM) [%]	cell viability (U2OS [2]; 10000 nM) [%]	cell viability (Caco-2 [3]; 1 nM) [%]	cell viability (Caco-2 [3]; 10 nM) [%]	cell viability (Caco-2 [3]; 100 nM) [%]	cell viability (Caco-2 [3]; 1000 nM) [%]	cell viability (Caco-2 [3]; 10000 nM) [%]	cell viability (Vero E6 [4]; 1 nM) [%]	cell viability (Vero E6 [4]; 10 nM) [%]	cell viability (Vero E6 [4]; 100 nM) [%]	cell viability (Vero E6 [4]; 1000 nM) [%]	cell viability (Vero E6 [4]; 10000 nM) [%]	cell viability (HepG2 [5]; 1 nM) [%]	cell viability (HepG2 [5]; 10 nM) [%]	cell viability (HepG2 [5]; 100 nM) [%]	cell viability (HepG2 [5]; 1000 nM) [%]	cell viability (HepG2 [5]; 10000 nM) [%]	relative viability EC50 (Calu-3 [6]) [µM]	relative viability EC50 (U2OS [7]) [µM]	relative viability EC50 (Caco-2 [8]) [µM]	relative viability EC50 (Vero E6 [9]) [µM]	relative viability EC50 (HepG2 [10]) [µM]	drug sensitivity score (Calu-3 [11])	drug sensitivity score (U2OS [12])	drug sensitivity score (Caco-2 [13])	drug sensitivity score (Vero E6 [14])	drug sensitivity score (HepG2 [15])
C#C[C@]1(O)CC[C@H]2[C@@H]3CCC4=CC(=O)CC[C@]4(C)[C@H]3CC[C@@]21C [ethisterone]	95.7	95.9	103	103	102	97.3	103	94.6	96.4	102	89.4	103	89.4	91.1	97.5	106	102	105	101	95.6	109	102	97.9	95.1	97.6	> 10	> 10	> 10	> 10	> 10	0	0	0	0	0
CCC(N)C(O)c1ccc(O)c(O)c1 (stereo not given) [ethylnorepinephrine]	101	99.4	108	91.9	104	100	94.8	98.4	98.4	99.3	93.7	95.5	103	89.9	95.1	93.9	102	104	107	112	100	110	98.7	109	102	> 10	> 10	> 10	> 10	> 10	0	0	0	0	0
CCOC(=O)Nc1ccc(NCc2ccc(F)cc2)nc1N [flupirtine]	105	113	98.6	88.2	91.3	100	99.1	101	101	99.5	106	102	99.6	87.7	96	104	111	98.2	98.6	97	89.2	101	103	98.4	99.8	> 10	> 10	> 10	> 10	> 10	0.5	0	0.6	0	0
Fc1ccc(C(c2ccccc2)(c2ccccc2F)n2ccnc2)cc1 (stereo not given) [flutrimazole]	102	92	107	90.4	106	108	107	107	102	97.1	122	112	96.1	98.9	80.5	97	102	108	118	99.2	106	110	95.7	96.5	97.7	> 10	> 10	> 10	> 10	> 10	0	0	0.7	0	0
CNC(=O)CN(CCN(CCN(CC(=O)[O-])CC(=O)NC)CC(=O)[O-])CC(=O)[O-].[Gd+3] [gadodiamide]	115	96.9	105	98.8	108	103	102	96.6	98.3	98.1	92.9	98.9	90.9	91.1	103	97.6	101	98.5	97.9	94.3	96.6	102	108	98.6	93.1	> 10	> 10	> 10	> 10	> 10	0	0	0	0	0
CC(C)=CCC[C@](C)(O[C@@H]1O[C@H](CO)[C@@H](O)[C@H](O)[C@H]1O)[C@H]1CC[C@]2(C)[C@@H]1[C@H](O)C[C@@H]1[C@@]3(C)CC[C@H](O)C(C)(C)[C@@H]3CC[C@]12C [ginsenoside-C-K]	89.3	97.3	98.9	101	99.4	99.4	94.7	99.7	97.5	99.3	91.7	104	94.5	96.2	102	109	99.7	103	98.4	98.1	108	111	106	92.7	85.9	> 10	> 10	> 10	> 10	> 10	0	0	0	0	0.7
O=C(O)c1ccc(S(=O)(=O)N(Cl)Cl)cc1 [halazone]	106	99.6	95.4	94.7	107	101	95.6	98.7	95.6	102	112	93.5	84.2	90.1	90.8	107	108	106	97	96.7	97.1	94.1	110	107	100	> 10	> 10	> 10	> 10	> 10	0	0	3.5	0	0
CCc1ccc(/C=C/C(=O)Nc2ccc(C(C)=O)cc2)o1 [heclin]	98.5	106	95	99.6	87.3	93.2	98.6	96.3	94.2	90.3	91.1	102	91.4	95.2	88.4	102	103	98.9	99.9	103	93.6	95.6	88.5	92.3	85.6	> 10	> 10	> 10	> 10	> 10	0.1	0	0	0	0.4
CC(O)COC[C@H]1O[C@@H]2O[C@H]3[C@H](O)[C@@H](O)[C@@H](O[C@H]4[C@H](O)[C@@H](O)[C@@H](O[C@H]5[C@H](O)[C@@H](O)[C@@H](O[C@H]6[C@H](O)[C@@H](O)[C@@H](O[C@H]7[C@H](O)[C@@H](O)[C@@H](O[C@H]8[C@H](O)[C@@H](O)[C@@H](O[C@H]1[C@H](O)[C@H]2O)O[C@@H]8COCC(C)O)O[C@@H]7COCC(C)O)O[C@@H]6COCC(C)O)O[C@@H]5COCC(C)O)O[C@@H]4COCC(C)O)O[C@@H]3COCC(C)O (stereo partly drawn) [hydroxypropyl-beta-cyclodextrin]	100	91.5	94.8	98.8	100	97.5	98.5	104	98.2	98.4	92.3	97.1	103	100	95.7	104	96.1	102	101	103	98.6	97.5	98.3	95.9	98.2	> 10	> 10	> 10	> 10	> 10	0	0	0	0	0
CSCC1CN(/N=C/c2ccc([N+](=O)[O-])o2)C(=O)O1 (stereo not given) [inimur]	89.9	97.4	96.8	104	101	98.2	101	95.8	101	105	90.6	97.7	92.7	94.5	89.4	96.6	96.4	89.7	89	95	100	93.8	96.5	94.3	93	> 10	> 10	> 10	> 10	> 10	0	0	0	0	0
CN[C@@H]1[C@@H](O)[C@@H](O[C@@H]2[C@@H](O)[C@H](O[C@H]3O[C@H](CN)[C@@H](O)[C@H](O)[C@H]3O)[C@@H](N)C[C@H]2NC(=O)[C@@H](O)CN)OC[C@]1(C)O [isepamicin]	96.4	90.7	91.5	92.6	99.3	97.6	100	94.6	99.1	102	89.7	97	89.1	98	91.8	91.5	98.3	96.6	95.5	101	98.8	95.8	96.6	107	103	> 10	> 10	> 10	> 10	> 10	0	0	0	0	0
Cc1cc(NC(=O)C2=C(O)c3ccccc3S(=O)(=O)N2C)no1 [isoxicam]	113	109	97.7	98.1	104	95.2	101	98.4	105	98.3	99.4	94.8	97.9	96.2	109	95.3	94.1	102	102	106	101	84.5	87.3	103	100	> 10	> 10	> 10	> 10	> 10	0	0	0	0	0
CCn1c(=O)c2c(nc(/C=C/c3ccc(OC)c(OC)c3)n2C)n(CC)c1=O [istradefylline]	87.5	93.8	94.4	101	103	102	97.9	101	104	102	97.7	89.7	104	103	106	103	97.1	93.6	96.4	104	97.1	94.1	101	98.9	112	> 10	> 10	> 10	> 10	> 10	0	0	0	0	0
CN1CCC(=C2c3ccccc3CC(=O)c3sccc32)CC1 [ketotifen]	108	93	101	95.5	105	101	99.3	103	96	103	110	101	94.1	89.7	96.3	99.4	93.6	96.4	98.4	84.9	98.5	96.9	112	92.9	84.9	> 10	> 10	> 10	> 10	> 10	0	0	0.1	0.4	0.8
